What was measured:
[1] = system: reconstituted human epidermis cultures (skin equivalents); assay: Treatment of skin equivalents (reconstituted human epidermis cultures) for 16 hours, light microscopy histology; format: cell-based; details: 16 hours at 37° C; for effect of cytokine on stratum corneum thickness of skin equivalent: 2.5 ng/ml added to medium; for effect of peptide on stratum corneum of skin equivalent: 6 μM peptide, 200 μl applied to surface, versus buffered salt solution
Procedure: (§1) 1 ml of room temperature SkinEthic maintenance medium is added to each well of 6-well tissue culture plates (one well per skin equivalent). The cell culture inserts containing the skin equivalents are removed from the agarose transportation medium using sterile forceps and placed in the wells ensuring no air bubbles are formed. The well plates are placed in a humid incubator at 37° C., 5% CO2. After 24 hours the medium is changed and the appropriate treatment is applied. 200 μl of each treatment is applied to the surface of the skin equivalent as follows: Control—buffered salt solution; 10% foetal bovine serum; 0.25% chymotrypsin; 6 μM Peptide 643.
All reagents are made up to the correct concentration in a buffered salt solution comprising the following in 1 litre: 0.142 g Na2HPO4, 1.802 g Glucose, 7.149 g HEPES, 0.224 g KCl, 7.597 g NaCl, pH 7.4.
Treatments are allowed to act on the cultures for 16 hours at 37° C.
The skin equivalents and membranes are cut from the cell culture insert using a scalpel. The equivalents are fixed in 10% formalin (3.7% formaldehyde) in phosphate buffered saline for 24 hours at 4° C. Samples are washed in 3 changes of PBS. The PBS is the decanted from the samples which are dehydrated in 3×5 minute changes of 70% ethanol, 2×5 minute changes of 95% ethanol and 2×5 minute changes of 100% ethanol. The samples are then placed in xylene for 5 minutes and then molten paraffin for infiltration for 5 minutes. The samples are occasionally agitated during each of the steps. The equivalents are then oriented in more molten paraffin in an embedding mould and allowed to set for 1 hour.
5 μm sections are taken of each block and collected on glass microscope slides. The slides are dried at 50° C. overnight.
The slides are racked and placed in xylene for 2×5 minute washes to remove any unwanted paraffin. The slides are then rehydrated by placing them for 5 minutes in each of the following; 2×100% ethanol, 1×95% ethanol, 1×70% ethanol. The slides are then rinsed in running tap water for 1 minute. Staining is with Gill's haematoxylin (2 minutes) followed by rinsing in water for 2 minutes then placing in 1% eosin for 5 minutes and rinsing briefly in water. The samples are dehydrated once more by placing in 70% ethanol for 30 seconds, 95% ethanol for 30 seconds and 2 changes of 100% ethanol for 1 and 2 minutes each. The slides are then placed in xylene for 1 minute before mounting coverslips with DPX mountant for microscopy.
Slides are examined under light microscope at using the 40×objective lens and typical images are captured onto the PC using Synoptics Acquis Pro.
as §1, with “applied.” for “applied. 200 μl of each treatment is applied to the surface of the skin equivalent as follows: Control—buffered salt solution; 10% foetal bovine serum; 0.25% chymotrypsin; 6 μM Peptide 643.”
200 μl of the following treatments are applied to the surface of the skin equivalents: (1) Control—buffered salt solution; (2) 6 μM Peptide 641; (3) 6 μM Peptide 642; (4) 6 μM Peptide643; (5) 6 μM Peptide 651; (6) 6 μM Peptide 653.
The following treatments are diluted from stock solutions (10 μg/ml TNF-α, 1 μg/m IL-1β) directly into 1 ml of medium and added to the well during the medium change: (7) 2.5 ng/ml TNF-α; and (8) 75 ng/ml IL-1β.

[2] = target: chymotrypsin (Bos taurus, UniProt P00766); assay: Chymotrypsin proteolysis of synthetic corneodesmosin peptides; format: biochemical; details: peptide exposed to chymotrypsin in appropriate buffer
From the text: Peptides corresponding to fragments of corneodesmosin, and comprising amino acids at and around position 40 (L20815; corresponding to position 180 on the nucleotide sequence) are synthesised. The peptides are exposed to chymotrypsin in appropriate buffer, and the digestion products identified. Chymotrypsin is known to cleave the peptide bond C-terminal to a F, Y or W residue, but not C-terminal to an L residue.
Peptides P1 and P2 (size 38 amino acids, comprising L and F at position 40 of L20815 respectively) are exposed to chymotrypsin. Peptide P1 has the sequence PTRITSPNDPCL40[…], while peptide P2 has the sequence PTRITSPNDPCF40[…].
The above results are confirmed by using the ExPASy Molecular Biology Server at http://www.expasy.ch/.

[3] = system: psoriatic skin biopsy (stratum corneum); assay: Treatment of skin biopsies from psoriatic patients with protease, transmission electron microscopy; design: species or system human; details: 0.25% chymotrypsin, 16 hours at 37° C, versus untreated half
Procedure: All biopsies are carried out by a dermatologist in an operating theatre. Aseptic technique is employed and sterile/disposable equipment used throughout the procedure. Two skin biopsies are taken from the lower back of each patient, one from an area of active plaque psoriasis and the other from an uninvolved site at least 10 cm away. The lower back is cleaned with antiseptic solution and local anaesthetic introduced to the intended areas of biopsy. Ellipses approximately 1.5 cm by 0.5 cm are excised from both lesional and non-lesional skin and placed in a container with PBS solution. The wounds are sutured using catgut for deep sutures and ethilon for superficial sutures (employing two or three stitches per wound). After the operation the wounds are covered with a sterile dressing and the patient observed for 30 minutes before being allowed home. Sutures are removed two weeks later.
The following procedures are performed under aseptic conditions: The psoriatic skin biopsy is cut into 2 pieces using a sterile scalpel. One half of the biopsy is placed in 2 ml of 0.25% chymotrypsin (diluted from a 10×stock in skin maintenance medium, Skinethic) in one well of a 24-well plate. The other half is incubated in 2 ml of maintenance medium with no additions. […]
Ultrathin sections (70-90 nm) are cut on an ultramicrotome. […] Electron micrographs are recorded on Agfa Scientia 23D56 EM film.

How did the “effect of cytokine on stratum corneum thickness of skin equivalent” value [1] turn out when “IL-1β: cytokine purchased from Calbiochem” was run?
The value was “increase in the thickness of the stratum corneum”.

For “NH2-cys-val-ser-pro-val-lys-ala-COOH (H-CVSPVKA-OH) [Peptide 643, fragment of SLPI (CVSPVKA)]”, which “effect of peptide on stratum corneum of skin equivalent” value (“effect of peptide” for short) [1] is on record?
The value was “thickening of the stratum corneum”.

With “NH2-leu-asp-pro-val-asp-COOH [Peptide 651]” as the substance, how does the “effect of peptide” value [1] read?
The value was “increase in the thickness of the stratum corneum”.

“NH2-leu-asp-pro-val-asp-thr-pro-asn-pro-thr-arg-arg-lys-pro-gly-COOH [Peptide 653]” was tested. Which “effect of peptide” value [1] did it give?
The value was “increase in the thickness of the stratum corneum”.

Which “effect of peptide” value [1] does the source give for “NH2-met-glu-asn-ser-leu-gly-pro-phe-pro-gln-cys-COOH (H-MENSLGPFPQC-OH) [Peptide 641, fragment of Desmocollin 1 (…)]” here?
Its value is “more permeable”.

Which “effect of peptide” value [1] does the source give for “NH2-ser-gly-lys-arg-asp-lys-ser-glu-glu-val-gln-cys-COOH (H-SGKRDKSEEVQC-OH) [Peptide 642, fragment of Desmoplakin (…)]” here?
The value was “more permeable”.

“PTRITSPNDPCF40TGKGDSSGFSGSSSSGSSISSAR [peptide P2]” was tested. Which “products of proteolysis by chymotrypsin” value [2] did it give?
The value was “three small peptides”.

Which “products of proteolysis by chymotrypsin” value [2] does the source give for “PTRITSPNDPCL40TGKGDSSGFSGSSSSGSSISSAR [peptide P1]” here?
The value was “two products of proteolysis”.

With TNF-α as the substance, how does the “effect of cytokine on stratum corneum thickness of skin equivalent” value [1] read?
Its value is “increase in the thickness of the stratum corneum”.

With chymotrypsin as the substance, how does the “corneodesmosomes visible in stratum corneum” value [3] read?
The value was “far fewer corneodesmosomes are visible”.

What about the “stratum corneum morphology (corneocyte layers)” value [3] of the same substance?
The value was “splitting of the layers of corneocytes (acantholysis)”.

And the “effect of protease on stratum corneum barrier of skin equivalent” value ([1]; applied to surface, chymotrypsin 0.25%)?
The value was “degrades the barrier of the stratum corneum”.

— patent US20040106120A1, “Diagnosis and treatment of disease” (priority 2000, published 2004)
